The values that follow come from ChEMBL document CHEMBL4477239 (Bioorg Med Chem, 2016).

Some results are limits rather than exact numbers.

By IC50 is commonly meant the concentration that gives 50% inhibition.

In assay [1] the target is Hepatocyte growth factor receptor (Homo sapiens, UniProt P08581).
Description: Inhibition of c-Met kinase (unknown origin) assessed as decrease in phosphorylation of TK substrate-biotin peptide preincubated for 5 to 10 mins followed by ATP addition measured after 30 mins by HTRF assay
Another assay concerns NCI-H1993. As to the kind of experiment: Cytotoxicity against human NCI-H1993 cells assessed as growth inhibition after 72 hrs by CCK-8 assay. The note with it: NCI-H1993, 72 h.

Chain of Hepatocyte growth factor receptor (P08581 whole entry): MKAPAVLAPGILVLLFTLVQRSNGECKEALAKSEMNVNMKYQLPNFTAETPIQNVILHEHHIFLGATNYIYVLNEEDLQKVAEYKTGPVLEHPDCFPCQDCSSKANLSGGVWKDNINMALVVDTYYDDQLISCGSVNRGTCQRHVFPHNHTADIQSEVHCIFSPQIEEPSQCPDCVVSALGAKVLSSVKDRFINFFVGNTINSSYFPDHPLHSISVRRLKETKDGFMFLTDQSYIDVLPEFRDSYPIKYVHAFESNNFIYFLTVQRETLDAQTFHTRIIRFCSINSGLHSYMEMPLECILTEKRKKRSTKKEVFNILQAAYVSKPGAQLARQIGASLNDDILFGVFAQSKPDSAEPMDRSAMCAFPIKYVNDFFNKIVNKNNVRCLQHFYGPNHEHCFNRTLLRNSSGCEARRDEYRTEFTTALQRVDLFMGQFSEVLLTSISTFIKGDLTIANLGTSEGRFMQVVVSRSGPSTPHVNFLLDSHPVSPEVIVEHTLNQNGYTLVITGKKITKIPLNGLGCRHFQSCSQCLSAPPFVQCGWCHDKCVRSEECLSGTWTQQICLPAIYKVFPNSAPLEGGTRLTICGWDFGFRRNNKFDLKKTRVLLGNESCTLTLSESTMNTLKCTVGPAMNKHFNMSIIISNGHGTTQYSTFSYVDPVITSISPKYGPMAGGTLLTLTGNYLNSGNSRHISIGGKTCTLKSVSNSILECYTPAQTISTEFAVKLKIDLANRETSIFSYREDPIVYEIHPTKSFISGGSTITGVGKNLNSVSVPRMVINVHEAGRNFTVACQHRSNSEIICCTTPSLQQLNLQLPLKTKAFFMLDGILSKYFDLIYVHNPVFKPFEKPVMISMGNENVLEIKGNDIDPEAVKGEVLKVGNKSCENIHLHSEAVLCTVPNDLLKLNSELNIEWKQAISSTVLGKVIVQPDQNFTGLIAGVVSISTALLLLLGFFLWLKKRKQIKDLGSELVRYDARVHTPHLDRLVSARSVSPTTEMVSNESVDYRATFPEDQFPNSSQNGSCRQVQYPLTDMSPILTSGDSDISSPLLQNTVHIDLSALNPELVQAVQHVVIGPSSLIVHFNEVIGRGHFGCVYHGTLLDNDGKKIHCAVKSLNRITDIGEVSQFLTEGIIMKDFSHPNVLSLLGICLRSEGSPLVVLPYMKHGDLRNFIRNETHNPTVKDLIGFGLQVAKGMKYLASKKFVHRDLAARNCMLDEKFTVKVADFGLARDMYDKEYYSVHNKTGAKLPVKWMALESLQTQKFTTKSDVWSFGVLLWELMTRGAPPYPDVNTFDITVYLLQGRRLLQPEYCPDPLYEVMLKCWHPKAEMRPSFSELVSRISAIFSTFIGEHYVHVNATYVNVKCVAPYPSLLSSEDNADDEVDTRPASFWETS

`CCC(c1ccc2ncccc2c1F)n1cnc2ncc(-c3cn[nH]c3)nc21` (centres undefined) yielded an IC50 in assay [1] of 37.7 nM. On the same count and under the same terms, as for `CCC(c1cc2cccnc2cc1F)n1cnc2ncc(-c3ccc(C(=O)OC)c(F)c3)nc21` (centres undefined), the figure is 18.1 nM. As for `CC(c1cc(F)c2ncccc2c1)n1cnc2ncc(-c3cn[nH]c3)nc21` (centres undefined), the IC50 in assay [1] is 279 nM; in the assay with NCI-H1993 it was above 10000 nM. On to `CC(NC/N=C/c1cnc2[nH]ccc2c1)c1ccc2ncccc2c1` (centres undefined), for which the concentration for half-maximal inhibition (IC50) in assay [1] came to 3.3 nM; in the assay on NCI-H1993, 956 nM. For `CC(c1cc2cccnc2cc1F)n1cnc2ncc(-c3ccccc3)nc21` (centres undefined) the same measures were 4.6 nM and 570 nM. Take `CC(c1c(F)cc2ncccc2c1F)n1cnc2ncc(-c3cccc4ccccc34)nc21` (centres undefined): the IC50 in assay [1] is 23.8 nM. The same measure, in the same setting: as for `CCC(c1cc2cccnc2cc1F)n1cnc2ncc(-c3cnc4ccccc4c3)nc21` (centres undefined), the figure is 17.2 nM; as for `CC(c1cc(F)c2ncccc2c1)n1cnc2ncc(-c3cccc4ccccc34)nc21` (centres undefined), above 1000 nM. Turning to `Cn1cc(-c2cnc3ncn(Cc4ccc5ncccc5c4)c3n2)cn1`, in the assay on NCI-H1993, the IC50 worked out at 617 nM.

Compound `COC(=O)c1ccc(-c2cnc3ncn(C(C)c4cc5cccnc5cc4C)c3n2)cc1F` (centres undefined) gave an IC50 in assay [1] of 64.5 nM.

Take `CC(c1cc(F)c2ncccc2c1)n1cnc2ncc(-c3ccncc3)nc21` (centres undefined): the figures for the concentration for half-maximal inhibition (IC50) (in assay [1]; in the assay with NCI-H1993) were 190 nM and above 10000 nM, respectively. Compound `CCC(c1cc2cccnc2cc1F)n1cnc2ncc(-c3ccccc3)nc21` (centres undefined) gave a concentration for half-maximal inhibition (IC50) in assay [1] of 28.1 nM. Turning to `Nc1ccc(-c2cnc3ncn(Cc4ccc5ncccc5c4)c3n2)cc1`, the half-inhibitory concentration (IC50) amounted to 12.4 nM in assay [1] and 4950 nM with NCI-H1993. For `CC(c1cc(F)c2ncccc2c1)n1cnc2ncc(-c3cnc4ccccc4c3)nc21` (centres undefined) the same measures were 134 nM and above 10000 nM.

For `Cc1c(C(C)n2cnc3ncc(-c4cnc5ccccc5c4)nc32)ccc2ncccc12` (centres undefined), the IC50 in assay [1] stood at 4.9 nM; in the assay on NCI-H1993, 450 nM.

For the compound `FC(F)(F)c1ccc(-c2cnc3ncn(Cc4ccc5ncccc5c4)c3n2)cc1`, the results for the IC50 (in assay [1]; in the assay with NCI-H1993) were 27.9 nM and above 10000 nM, respectively. For `CC(c1cc(F)c2ncccc2c1)n1cnc2ncc(-c3cnn(C)c3)nc21` (centres undefined) the same measures were 91.8 nM and above 10000 nM.

On to `CC(NC/N=C/c1cnn(CCO)c1)c1ccc2ncccc2c1` (centres undefined), for which the figures for the IC50 (in assay [1]; with NCI-H1993) were 12.7 nM and 148 nM, respectively. For `Cc1c(C(C)n2cnc3ncc(-c4ccncc4)nc32)ccc2ncccc12` (centres undefined) the same measures were 4.4 nM and 950 nM.

In assay [1], `CCC(c1cc2cccnc2cc1F)n1cnc2ncc(-c3cn[nH]c3)nc21` (centres undefined) displayed an IC50 of 8.7 nM.

Regarding `Cc1cc2ncccc2cc1C(C)n1cnc2ncc(-c3ccncc3)nc21` (centres undefined), inhibition in assay [1] was half-maximal at 68.3 nM (IC50).

As to `C[C@H](c1cc2cccnc2cc1F)n1cnc2ncc(-c3cnn(C)c3)nc21`, the IC50 in assay [1] turned out to be 1.94 nM; in the assay with NCI-H1993, 239 nM.

`CCC(c1cc2cccnc2cc1F)n1cnc2ncc(-c3cnn(CCO)c3)nc21` (centres undefined) gave an IC50 in assay [1] of 9.3 nM. On to `Cc1c(C(C)n2cnc3ncc(-c4cn[nH]c4)nc32)ccc2ncccc12` (centres undefined), for which the values for the IC50 (in assay [1]; in the assay with NCI-H1993) were 2.7 nM and 599 nM, respectively. With `CC(NC/N=C/c1cnn(C)c1)c1ccc2ncccc2c1` (centres undefined), the IC50 in assay [1] came to 2.49 nM; with NCI-H1993, 197 nM. For `CC(NC/N=C/c1cn[nH]c1)c1ccc2ncccc2c1` (centres undefined) the same measures were 11.4 nM and 519 nM. For `CCC(c1ccc2ncccc2c1F)n1cnc2ncc(-c3ccc(C(N)=O)c(F)c3)nc21` (centres undefined) the same measures were 1.6 nM and 665 nM.

With `OCCn1cc(-c2cnc3nnn(Cc4ccc5ncccc5c4)c3n2)cn1` [PF-04217903], the IC50 in the assay on NCI-H1993 stood at 33.6 nM. Take `Fc1ccccc1-c1cnc2ncn(Cc3ccc4ncccc4c3)c2n1`: the half-inhibitory concentration (IC50) in assay [1] is 24.6 nM; in the assay with NCI-H1993 it was above 10000 nM. For the compound `CCC(c1ccc2ncccc2c1F)n1cnc2ncc(-c3ccncc3)nc21` (centres undefined), inhibition in assay [1] was half-maximal at 100 nM (IC50). As for `FC(F)(F)Oc1ccc(-c2cnc3ncn(Cc4ccc5ncccc5c4)c3n2)cc1`, the IC50 in assay [1] was 81.2 nM; with NCI-H1993, above 10000 nM. For `CC(c1cc2cccnc2cc1F)n1cnc2ncc(-c3cn[nH]c3)nc21` (centres undefined) the same measures were 3.6 nM and 187 nM.

In the case of `Oc1nc2ncc(-c3ccncc3)nc2n1Cc1ccc2ncccc2c1`, the IC50 in assay [1] was above 1000 nM; with NCI-H1993, above 10000 nM. In assay [1], `CNC(=O)c1ccc(-c2cnc3ncn(C(C)c4cc5cccnc5cc4C)c3n2)cc1F` (centres undefined) came in with a 50% inhibitory concentration (IC50) of 31 nM. For the compound `CCC(c1cc2cccnc2cc1F)n1cnc2ncc(-c3ccc(C(N)=O)c(F)c3)nc21` (centres undefined), the figures for the IC50 (in assay [1]; in the assay with NCI-H1993) were 2.5 nM and 226 nM, respectively.

Regarding `CNC(=O)c1ccc(/C=N/CNC(C)c2ccc3ncccc3c2)cc1F` (centres undefined), the values for the half-inhibitory concentration (IC50) (in assay [1]; with NCI-H1993) were 3.95 nM and 191 nM, respectively. The compound `Cc1cc2ncccc2cc1C(C)n1cnc2ncc(-c3ccc(C(N)=O)c(F)c3)nc21` (centres undefined) had an IC50 in assay [1] of 11.7 nM. The same measure, in the same setting: as for `COC(=O)c1ccc(-c2cnc3ncn(C(C)c4ccc5ncccc5c4C)c3n2)cc1F` (centres undefined), the figure is 5.9 nM; as for `Cc1cc2ncccc2cc1C(C)n1cnc2ncc(-c3cnn(C)c3)nc21` (centres undefined), 32.6 nM; as for `CCC(c1ccc2ncccc2c1F)n1cnc2ncc(-c3ccccc3)nc21` (centres undefined), 81 nM. Consider `COC(=O)c1ccc(/C=N/CNC(C)c2ccc3ncccc3c2)cc1F` (centres undefined), for which the IC50 is 6.41 nM in assay [1] and 1110 nM with NCI-H1993. For `CC(NC/N=C/c1ccccc1)c1ccc2ncccc2c1` (centres undefined) the same measures were 5.17 nM and 1220 nM. `CCC(c1ccc2ncccc2c1F)n1cnc2ncc(-c3ccc(C(=O)NC)c(F)c3)nc21` (centres undefined): in assay [1], the IC50 was 7.7 nM.

With `c1ccc(-c2cnc3ncn(Cc4ccc5ncccc5c4)c3n2)cc1`, the results for the IC50 (in assay [1]; in the assay with NCI-H1993) were 17.6 nM and 7490 nM, respectively. For `Oc1nc2ncc(-c3ccccc3)nc2n1Cc1ccc2ncccc2c1` the same measures were above 1000 nM and above 10000 nM. Regarding `CCC(c1cc2cccnc2cc1F)n1cnc2ncc(-c3ccncc3)nc21` (centres undefined), half-maximal inhibition in assay [1] (IC50) required 14.1 nM. Still for that read-out and setting: as for `CCC(c1ccc2ncccc2c1F)n1cnc2ncc(-c3cnn(CCO)c3)nc21` (centres undefined), the figure is 22.5 nM. As for `CC(NC/N=C/C1=CCNCC1)c1ccc2ncccc2c1` (centres undefined), the values for the half-maximal inhibitory concentration (IC50) (in assay [1]; in the assay on NCI-H1993) were 15.2 nM and 2660 nM, respectively. For `CC(c1c(F)cc2ncccc2c1F)n1cnc2ncc(-c3ccccc3)nc21` (centres undefined) the same measures were 1.8 nM and 514 nM. On to `Cc1cc2ncccc2cc1C(C)n1cnc2ncc(-c3cnc4ccccc4c3)nc21` (centres undefined), for which the IC50 in assay [1] came out at 38.1 nM. Same read-out and setting: as for `CCC(c1cc2cccnc2cc1F)n1cnc2ncc(-c3cnn(C)c3)nc21` (centres undefined), the figure is 10.6 nM. `Cn1cc(-c2cnc3nc(O)n(Cc4ccc5ncccc5c4)c3n2)cn1`: the IC50 in assay [1] is above 1000 nM; in the assay on NCI-H1993 it was above 10000 nM.

Turning to `CC(c1cc2cccnc2cc1F)n1cnc2ncc(-c3ccncc3)nc21` (centres undefined), the IC50 in assay [1] amounted to 3.8 nM; in the assay on NCI-H1993, 171 nM.

`CC(NC/N=C/c1ccncc1)c1ccc2ncccc2c1` (centres undefined): the IC50 was 3.67 nM in assay [1] and 614 nM with NCI-H1993. For `Cc1c(C(C)n2cnc3ncc(-c4cnn(CCO)c4)nc32)ccc2ncccc12` (centres undefined) the same measures were 4.2 nM and 726 nM. For `C1=C(c2cnc3ncn(Cc4ccc5ncccc5c4)c3n2)CCNC1` the same measures were 33.2 nM and 6660 nM.

Turning to `CC(NC/N=C/c1ccc(C(N)=O)c(F)c1)c1ccc2ncccc2c1` (centres undefined), the IC50 worked out at 2.74 nM in assay [1] and 238 nM in the assay with NCI-H1993.

Take `C[C@H](c1cc2cccnc2cc1F)n1cnc2ncc(-c3ccc(C(N)=O)c(F)c3)nc21`: the IC50 was 2.79 nM in assay [1] and 329 nM in the assay on NCI-H1993. As to `CCC(c1ccc2ncccc2c1F)n1cnc2ncc(-c3ccc(C(=O)OC)c(F)c3)nc21` (centres undefined), the midpoint of inhibition in assay [1], the IC50, lay at 39.2 nM. With `CN(C)c1cccc(-c2cnc3ncn(Cc4ccc5ncccc5c4)c3n2)c1`, the IC50 in assay [1] is 40 nM; in the assay on NCI-H1993, above 10000 nM. In the case of `OCCn1cc(-c2cnc3ncn(Cc4ccc5ncccc5c4)c3n2)cn1`, the IC50 in assay [1] worked out at 15.9 nM; in the assay on NCI-H1993 it was 2320 nM. For `c1cnc2ccc(Cn3cnc4ncc(-c5cn[nH]c5)nc43)cc2c1` the same measures were 13.2 nM and 2890 nM. For `Cc1nc2ncc(-c3cnn(C)c3)nc2n1Cc1ccc2ncccc2c1` the same measures were 641 nM and above 10000 nM. As for `CC(NC/N=C/c1ccnn1C)c1ccc2ncccc2c1` (centres undefined), the IC50 in assay [1] turned out to be 38.5 nM; in the assay with NCI-H1993, 3280 nM. As to `CCC(c1cc2cccnc2cc1F)n1cnc2ncc(-c3ccc(C(=O)NC)c(F)c3)nc21` (centres undefined), the IC50 in assay [1] stood at 9.4 nM. For `CC(c1cc(F)c2ncccc2c1)n1cnc2ncc(-c3ccccc3)nc21` (centres undefined), the IC50 in assay [1] was 155 nM; in the assay on NCI-H1993, above 10000 nM.

As for `CCC(c1ccc2ncccc2c1F)n1cnc2ncc(-c3cnc4ccccc4c3)nc21` (centres undefined), the IC50 in assay [1] was determined as 16.4 nM.

With `CC(c1cc2cccnc2cc1F)n1cnc2ncc(-c3cnc4ccccc4c3)nc21` (centres undefined), the IC50 amounted to 3.4 nM in assay [1] and 109 nM in the assay on NCI-H1993.

In the case of `Cn1nccc1-c1cnc2ncn(Cc3ccc4ncccc4c3)c2n1`, the IC50 in assay [1] was found to be 66.6 nM; with NCI-H1993 it was 7910 nM.

`c1cnc2ccc(Cn3cnc4ncc(-c5ccncc5)nc43)cc2c1`: the IC50 is 17.5 nM in assay [1] and 1160 nM with NCI-H1993.

Regarding `CC(c1cc2cccnc2cc1F)n1cnc2ncc(-c3cnn(CCO)c3)nc21` (centres undefined), the IC50 turned out to be 4.5 nM in assay [1] and 175 nM in the assay with NCI-H1993.

`CCC(c1ccc2ncccc2c1F)n1cnc2ncc(-c3cnn(C)c3)nc21` (centres undefined): it took 13.5 nM to reach half-maximal inhibition in assay [1] (IC50). For `Cc1c(C(C)n2cnc3ncc(-c4cnn(C)c4)nc32)ccc2ncccc12` (centres undefined), the IC50 in assay [1] worked out at 3.2 nM; with NCI-H1993, 206 nM.
